How the values were obtained:
[1] = test system: Torulopsis sp. Strain A1 (NRRLY-11,419); experiment: Oxidation of sec-alcohols to ketones by cell suspensions of yeasts; format: cell-based; conditions: sec-alcohol to methyl ketone
[2] = test system: purified secondary alcohol dehydrogenase (SADH) from Pseudomonas sp. ATCC 21439; experiment: Kinetics and substrate specificity of purified SADH; format: biochemical; conditions: 2-butanol = 100%
[3] = test system: cell extract of Pichia sp. NRRL-Y-11,328; experiment: Oxidation of secondary alcohols to methylketone by cell extracts of yeasts; format: biochemical; conditions: methanol-grown; cell extract + NAD^+; sec. alcohol to methyl ketone; gas chromatography
[4] = test system: Hansenula polymorpha ATCC 26012; experiment: Oxidation of sec-alcohols to ketones by cell suspensions of yeasts; format: cell-based; conditions: sec-alcohol to methyl ketone
[5] = test system: Candida utilis ATCC 26387; experiment: as above; format: cell-based; conditions: sec-alcohol to methyl ketone
[6] = test system: Methylobacter bovis (CRL M1Y) NRRL B-11,216; experiment: Oxidation by washed cell suspensions of methane-grown cells; format: cell-based; conditions: methane-grown cells; isopropanol to acetone, 2-butanol to 2-butanone
Description: The pH of the nutrient medium was adjusted to 7.0 by the addition of acid or base and 50 ml samples of the nutrient medium were charged into a plurality of 300 ml shaker flasks. The shaker flasks were inoculated with an inoculating loop of cells from an agar plate containing homogeneous colonies of the microorganisms on the plate (the purity of the isolates was confirmed by microscopic examination. The isolates had been maintained on agar plates under an atmosphere of methane and air having a 1:1 v/v gas ratio which had been transferred evey two weeks. The gaseous phase of the inoculated flasks was then replaced with a gas mixture comprised of methane and air having a ratio of 1:1 on a v/v basis. […]
The cells were harvested by centrifugation at 10,000×g. at 4° C. for 30 minutes. The cell pellet was washed twice with a 0.15 M phosphate buffer at a pH of 7.0 (containing 0.002 M MgCl2). The washed cells were then suspended in a 0.15 M phosphate buffer at pH 7.0.
A 0.5 ml sample of each washed cell suspension (2 mg cells) was put into 10 ml vials at 4° C. which were sealed with a rubber cap. The gaseous phase of the vials was removed with vacuum and then was replaced with a gas mixture of the oxidative substrate (e.g., methane) and oxygen at a 1:1 v/v ratio. The vials were then incubated at 30 ° C. on a rotary shaker at 300 rpm. Samples of product (3 μl) were withdrawn periodically with a microsyringe and the products were analyzed by gas chromatography (ionization flame detector column).
The newly discovered and isolated microorganism strains of the present invention were each grown aerobically in the presence of methane in the manner described above. The methane-grown microbial cells were then washed, recovered and put to use in oxidizing an oxidative substrate by the procedure described above except in the case of a liquid substrate 10 μl of the substrate were used.

[7] = test system: Pichia sp. NRRL-Y-11328; experiment: Oxidation of sec-alcohols to ketones by cell suspensions of yeasts; format: cell-based; conditions: sec-alcohol to methyl ketone
[8] = test system: Methylobacter chroococcum (CRL M6) NRRL B-11,214; experiment: Oxidation by washed cell suspensions of methane-grown cells; format: cell-based; conditions: methane-grown cells; isopropanol to acetone, 2-butanol to 2-butanone
Method in brief: (§1)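 Cells grown 2 days at 30 °C under methane/air 1:1 (pH 7.0 medium), washed and resuspended in 0.15 M phosphate pH 7.0. Suspension (2 mg cells) incubated at 30 °C, 300 rpm under substrate/O2 1:1 (liquid substrates 10 μl); products measured periodically by GC with flame ionization detection.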

[9] = test system: Methylococcus capsulatus (CRL M1) NRRL B-11,219; experiment: as above; format: cell-based; conditions: methane-grown cells; isopropanol to acetone, 2-butanol to 2-butanone
Method in brief: as §1

[10] = test system: Methylobacterium organophilum (CRL 26 R6) NRRL B-11,222; experiment: as above; format: cell-based; conditions: methane-grown cells; isopropanol to acetone, 2-butanol to 2-butanone
Method in brief: as §1

[11] = test system: Methylomonas rubrum (CRL M6P) NRRL B-11,210; experiment: as above; format: cell-based; conditions: methane-grown cells; isopropanol to acetone
Method in brief: as §1

[12] = test system: Methylosinus trichosporium (CRL 15 PM1) NRRL B-11,202; experiment: as above; format: cell-based; conditions: methane-grown cells; isopropanol to acetone, 2-butanol to 2-butanone
Method in brief: as §1

[13] = test system: Kloeckera sp. Strain A2 (NRRLY-11,420); experiment: Oxidation of sec-alcohols to ketones by cell suspensions of yeasts; format: cell-based; conditions: sec-alcohol to methyl ketone
[14] = test system: cell extract of Kloeckera sp. strain A2 NRRL-Y-11,420; experiment: Oxidation of secondary alcohols to methylketone by cell extracts of yeasts; format: biochemical; conditions: methanol-grown; cell extract + NAD^+; sec. alcohol to methyl ketone; gas chromatography
[15] = test system: Methylobacter chroococcum CRL M6 NRRL B-11,214; experiment: Sec. alcohol oxidation by cell suspensions of methanol-grown cells; format: cell-based; conditions: sec. alcohol to methyl ketone
Source text: (§2) In this example, the procedure of Example 1 was repeated except that a plurality of the methane-utilizing methylotrophic microorganisms of the invention were each aerobically grown in a methanol-containing nutrient medium instead of a methane-containing medium. The nutrients in the medium were the same as indicated in Example 1 except that 0.4% v/v methanol was used as the alcohol dehydrogenase enzyme inducer and major source of carbon and energy for growth. Following growth the cells were harvested and washed as described in Example 1. The resting cells of the induced methanol-grown methylotrophic microorganisms were then contacted with a […] under aerobic conditions in a buffered solution by the procedure described in Example 1.

[16] = test system: Methylocystis parvus CRL 18 NRRL B-11,204; experiment: as above; format: cell-based; conditions: sec. alcohol to methyl ketone
Source text: as §2

[17] = test system: Methylococcus capsulatus CRL M1 NRRL B-11,219; experiment: as above; format: cell-based; conditions: sec. alcohol to methyl ketone
Source text: as §2

[18] = test system: Methylosinus trichosporium CRL 15 NRRL B-11,202; experiment: as above; format: cell-based; conditions: sec. alcohol to methyl ketone
Source text: as §2

[19] = test system: Methylomonas methanica CRL M4P NRRL B-11,205; experiment: as above; format: cell-based; conditions: sec. alcohol to methyl ketone
Source text: as §2

[20] = test system: Methylomonas streptobacterium CRL 17 PM3 NRRL B-11,208; experiment: as above; format: cell-based; conditions: sec. alcohol to methyl ketone
Source text: as §2

[21] = test system: Methylobacterium organophilum CRL 26 NRRL B-11,222; experiment: as above; format: cell-based; conditions: sec. alcohol to methyl ketone
Source text: as §2

[22] = test system: Methylobacter vinelandii CRL M5Y NRRL B-11,218; experiment: as above; format: cell-based; conditions: sec. alcohol to methyl ketone
Source text: as §2

[23] = test system: Methylococcus capsulatus CRL 25 NRRL B-11,221; experiment: as above; format: cell-based; conditions: sec. alcohol to methyl ketone
Source text: as §2

[24] = test system: Methylobacter bovis CRL 19 NRRL B-11,217; experiment: as above; format: cell-based; conditions: sec. alcohol to methyl ketone
Source text: as §2

[25] = test system: cell extract of Candida utilis ATCC 26,387; experiment: Oxidation of secondary alcohols to methylketone by cell extracts of yeasts; format: biochemical; conditions: methanol-grown; cell extract + NAD^+; sec. alcohol to methyl ketone; gas chromatography
[26] = test system: cell extract of Torulopsis sp. strain A1 NRRL-Y-11,419; experiment: as above; format: biochemical; conditions: methanol-grown; cell extract + NAD^+; sec. alcohol to methyl ketone; gas chromatography
[27] = test system: purified secondary alcohol dehydrogenase from Pichia sp. NRRL Y-11,328; experiment: Substrate specificity, electron acceptor and stoichiometry of purified yeast SADH; format: biochemical; conditions: examined spectrophotometrically
[28] = test system: cell extract of Hansenula polymorpha ATCC 26,012; experiment: Oxidation of secondary alcohols to methylketone by cell extracts of yeasts; format: biochemical; conditions: methanol-grown; cell extract + NAD^+; sec. alcohol to methyl ketone; gas chromatography

For CC(C)O [Isopropanol], the “Conversion Rate” value ([1]; growth substrate Ethanol) was 4.2 μmoles/hr/mg of protein, the “Conversion Rate” value ([1]; growth substrate Methanol) was 4.5 μmoles/hr/mg of protein and the “Conversion Rate” value ([1]; growth substrate Methylamine) was 4.3 μmoles/hr/mg of protein. For the same compound, the “Conversion Rate” value ([1]; growth substrate Methylformate) was 4.5 μmoles/hr/mg of protein, the “Conversion Rate” value ([1]; growth substrate Propylamine) was 3.2 μmoles/hr/mg of protein and the “relative percent rate of oxidation” value [2] was 85%. For the same compound, the “Conversion Rate” value [3] was 5.5 μmoles/hr/mg Protein, the “Conversion Rate” value ([4]; growth substrate Ethanol) was 5.0 μmoles/hr/mg of protein and the “Conversion Rate” value ([4]; growth substrate Methanol) was 5.9 μmoles/hr/mg of protein. For the same compound, the “Conversion Rate” value ([4]; growth substrate Methylamine) was 5.2 μmoles/hr/mg of protein, the “Conversion Rate” value ([4]; growth substrate Methylformate) was 5.6 μmoles/hr/mg of protein and the “Conversion Rate” value ([4]; growth substrate Propylamine) was 4.1 μmoles/hr/mg of protein. The “Conversion Rate” value ([5]; growth substrate Ethanol) was 5.2 μmoles/hr/mg of protein, the “Conversion Rate” value ([5]; growth substrate Methanol) was 6.2 μmoles/hr/mg of protein and the “Conversion Rate” value ([5]; growth substrate Methylamine) was 5.0 μmoles/hr/mg of protein. The “Conversion Rate” value ([5]; growth substrate Methylformate) was 5.6 μmoles/hr/mg of protein, the “Conversion Rate” value ([5]; growth substrate Propylamine) was 4.2 μmoles/hr/mg of protein and the “Conversion Rate to Ketone, 2 hrs.” value [6] was 5 μmole/2 mg protein. For the same compound, the “Conversion Rate” value ([7]; growth substrate Ethanol) was 4.5 μmoles/hr/mg of protein, the “Conversion Rate” value ([7]; growth substrate Methanol) was 5.2 μmoles/hr/mg of protein and the “Conversion Rate” value ([7]; growth substrate Methylamine) was 4.2 μmoles/hr/mg of protein. The “Conversion Rate” value ([7]; growth substrate Methylformate) was 4.9 μmoles/hr/mg of protein, the “Conversion Rate” value ([7]; growth substrate Propylamine) was 3.2 μmoles/hr/mg of protein and the “Conversion Rate to Ketone, 2 hrs.” value [8] was 1 μmole/2 mg protein. For the same compound, the “Conversion Rate to Ketone, 20 hrs.” value [8] was 8 μmole/2 mg protein, the “Conversion Rate to Ketone, 2 hrs.” value [9] was 3 μmole/2 mg protein and the “Conversion Rate to Ketone, 20 hrs.” value [9] was 15 μmole/2 mg protein. For the same compound, the “Conversion Rate to Ketone, 2 hrs.” value [10] was 3 μmole/2 mg protein, the “Conversion Rate to Ketone, 2 hrs.” value [11] was 1 μmole/2 mg protein and the “Conversion Rate to Ketone, 2 hrs.” value [12] was 3 μmole/2 mg protein. The “Conversion Rate” value ([13]; growth substrate Ethanol) was 4.5 μmoles/hr/mg of protein, the “Conversion Rate” value ([13]; growth substrate Methanol) was 4.8 μmoles/hr/mg of protein and the “Conversion Rate” value ([13]; growth substrate Methylamine) was 4.0 μmoles/hr/mg of protein. The “Conversion Rate” value ([13]; growth substrate Methylformate) was 4.9 μmoles/hr/mg of protein, the “Conversion Rate” value ([13]; growth substrate Propylamine) was 4.0 μmoles/hr/mg of protein and the “Conversion Rate” value [14] was 4.8 μmoles/hr/mg Protein. For the same compound, the “Conversion Rates” value [15] was 1.0 μmoles/hr/mg protein, the “Conversion Rates” value [16] was 0.25 μmoles/hr/mg protein and the “Conversion Rates” value [17] was 5.0 μmoles/hr/mg protein. For the same compound, the “Conversion Rates” value [18] was 0.50 μmoles/hr/mg protein, the “Conversion Rates” value [19] was 2.0 μmoles/hr/mg protein and the “Conversion Rates” value [20] was 0.67 μmoles/hr/mg protein. For the same compound, the “Conversion Rates” value [21] was 0.72 μmoles/hr/mg protein, the “Conversion Rates” value [22] was 2.0 μmoles/hr/mg protein and the “Conversion Rates” value [23] was 0.62 μmoles/hr/mg protein. For the same compound, the “Conversion Rates” value [24] was 0.40 μmoles/hr/mg protein, the “Conversion Rate” value [25] was 4.5 μmoles/hr/mg Protein and the “Conversion Rate” value [26] was 4.5 μmoles/hr/mg Protein. The “oxidation by the purified enzyme” value [27] was “catalyzed the oxidation” and the “Conversion Rate” value [28] was 4.8 μmoles/hr/mg Protein.
